These are literature values, as cited in the CATMoS acute toxicity set (Mansouri et al. 2021).

Values joined by “and” are separate entries in the source; they are usually repeats but may differ in a detail not shown here. Identical values can stand only once.

The nature of the data set: rat acute oral toxicity. The settings on record: in vivo.
Turning to `Cc1cc(C)[nH]n1`, the LD50 is 1720 mg/kg.

As to `CC1=Nc2ccc(Cl)cc2S(=O)(=O)N1`, the LD50 was 980 mg/kg.

On to `CNC(=O)Oc1ccccc1C(OC)OC`, for which the LD50 is 160 mg/kg.

On to `CC(C)(C)C(=O)CC#N`, for which the LD50 is 283 mg/kg.

For `C[N+](C)(C)CCC[N+]1(C)CC2C3C=CC(CC3)C2C1` (configuration not stated), the LD50 was 1730 mg/kg.

`CCN1CCNCC1`: the LD50 is 2160 mg/kg.

As to `C=C(C)C(=O)OCCOC(=O)C(=C)C`, the LD50 is 3300 mg/kg.

For `CCOP(=O)(OCC)SCSc1cc(Cl)ccc1Cl`, the LD50 is 38 mg/kg.

Consider `C=COCC(C)CCCC(C)CC(C)C` (configuration not stated), for which the LD50 is 1220 mg/kg.

Take `O=[N+]([O-])c1ccc(/C=N/NC(=S)N2CCCC2)o1`: the LD50 was 750 mg/kg.

Take `CCC(C)N(C(=O)SCc1ccccc1)C(C)CC` (configuration not stated): the LD50 is 10000 mg/kg.

On to `CCC1CCC(C)NC1` (configuration not stated), for which the LD50 was 540 mg/kg.

`CC1=COC(C)(C=O)CC1` (configuration not stated): the 50% lethal dose (LD50) was 2460 mg/kg.

Turning to `Nc1n[nH]c2ccc(C(F)(F)F)cc12`, the LD50 was 90 mg/kg.

For `CCOC(C1=NCC(O)CN1)c1ccccc1` (configuration not stated), the LD50 was 1750 mg/kg.

In the case of `CCc1ccc(OCC=C(C)CCC=C(C)C)cn1`, the LD50 was 800 mg/kg.

Regarding `O=C1CCc2cc(C=CCN3CCN(c4cccc(Cl)c4)CC3)ccc2N1`, the LD50 was 500 mg/kg.

As to `CC(C)CCCCCCO`, the LD50 is 2980 mg/kg.

For `O=C1NC(=O)C(c2ccccc2)(c2ccccc2)N1`, the LD50 is 1530 mg/kg.

For `CCCCC1C(=O)N(c2ccccc2)N(c2ccc(O)cc2)C1=O` (configuration not stated), the LD50 was 329 mg/kg.

On to `CN1CCC(=C2c3ccccc3CCc3sccc32)CC1`, for which the median lethal dose (LD50) was 410 mg/kg.

Consider `O=C1C=CC(=O)N1CCCCCCN1C(=O)C=CC1=O`, for which the LD50 is 550 mg/kg.

As for `N=C(N)NCCN1CCCCCCC1`, the LD50 is 1050 mg/kg.

For the molecule `O=C1CCCCC(=O)N1`, the LD50 was 22600 mg/kg.

Take `C=CC1(C)CCC(C(C)(C)O)O1` (configuration not stated): the LD50 is 1150 mg/kg.

For the molecule `CCN(CC)c1ccc(N=Nc2ccc(S(=O)(=O)N(C)C)cc2)c(S(=O)(=O)NCC[n+]2ccccc2)c1`, the LD50 is 5120 mg/kg.

In the case of `Nc1nc(=S)ss1`, the LD50 was 3050 mg/kg.

Consider `CCCCC(C#N)(Cn1ccnc1)c1ccccc1` (configuration not stated), for which the LD50 was 1590 mg/kg.

As for `CCN(CC)Cc1cc(-c2ccccc2)ccc1O`, the LD50 is 28 mg/kg.

Take `NC1CCN(c2cccc(Cl)n2)CC1`: the LD50 is 190 mg/kg.

For `CCOC1c2ccccc2C(=O)N(C)c2ccccc21` (configuration not stated), the LD50 was 4000 mg/kg.

On to `Cn1c(=O)c2c(ncn2CCO)n(C)c1=O`, for which the LD50 was 710 mg/kg.

Regarding `CC(Oc1ccc(Oc2ncc(Cl)cc2Cl)cc1)C(=O)N1CCCO1` (configuration not stated), the LD50 is 500 mg/kg.

Regarding `Cc1ccccc1NCCO`, the LD50 was 2200 mg/kg.

Turning to `BrCC(Br)C1CCC(Br)C(Br)C1` (configuration not stated), the LD50 was 3220 mg/kg.

For the molecule `O=C(O)[C@H]1/C(=C/CO)O[C@@H]2CC(=O)N21`, the LD50 was 7940 mg/kg.

As to `CC(=O)N(CCN(C(C)=O)C(C)=O)C(C)=O`, the LD50 was 7940 mg/kg.

With `CN(C)C(=O)c1nc(CNC(=O)CN)n(-c2ccc(Cl)cc2C(=O)c2ccccc2Cl)n1`, the LD50 was 680 mg/kg.

`O=C(O)Cc1cc(O)ccc1Nc1c(Cl)cc(O)cc1Cl`: the 50% lethal dose (LD50) is 1000 mg/kg.

On to `CC(Oc1ccc(Oc2nc3ccc(Cl)cc3o2)cc1)C(=O)O` (configuration not stated), for which the LD50 was 2360 mg/kg.

As to `CCCCCCCC/C=C\CCCCCCCC(=O)NCCS(=O)(=O)O`, the LD50 is 4000 mg/kg.

`OCC=CCO`: the LD50 is 1250 mg/kg.

As to `CCCc1ccccc1O`, the LD50 was 500 mg/kg.

As to `CCN(CC)CCNc1ccc(CO)c2sc3ccccc3c(=O)c12`, the LD50 is 980 mg/kg.

As for `S=P(N1CC1)(N1CC1)N1CC1`, the LD50 was 23 mg/kg.

For `CC(C)(C)NCC(O)c1cc(Cl)c(N)c(C(F)(F)F)c1` (configuration not stated), the LD50 is 306 mg/kg.

Consider `CC(N)C1(C)CCCO1` (configuration not stated), for which the LD50 is 130 mg/kg.

Take `C=CCNC(N)=S`: the LD50 was 200 mg/kg.

`O=[N+]([O-])c1cc(Br)c2nc(C(F)(F)F)[nH]c2c1`: the LD50 was 14.5 mg/kg.

As to `C[C@H]1O[C@H](O[C@H]2[C@H](O)[C@@H](O)[C@@H](O)[C@H](O)[C@@H]2O)[C@@H](N)C[C@@H]1NC(=N)C(=O)O`, the LD50 is 22000 mg/kg and 11400 mg/kg.

`N#CCCNC(=O)CCl`: the LD50 was 410 mg/kg.

Consider `CCOC(C1=NCC(C)(CC)CN1)c1cccc(F)c1` (configuration not stated), for which the LD50 was 165 mg/kg.

As for `C/C(=C\C(C)CC(C)CC(C)C)C1CC(=O)OC1=O` (configuration not stated), the 50% lethal dose (LD50) was 2550 mg/kg.

For `CN(C)CCN(C)n1cc(-c2ccccc2)c2ccccc21`, the LD50 was 1160 mg/kg.

Regarding `COCCOC(=O)CCCCCCCCC(=O)OCCOC`, the LD50 was 4970 mg/kg.

In the case of `C=CCc1ccc(O)c(OC)c1`, the LD50 was 1930 mg/kg.

Consider `O=S(=O)(O)C(F)(F)F`, for which the LD50 is 1610 mg/kg.

For the molecule `c1ccc2c(NC3=NCCS3)cccc2c1`, the LD50 was 50 mg/kg.

Take `N#Cc1cccc(C#N)c1`: the LD50 is 860 mg/kg.

On to `CN(C)CCCn1c2c(c3ccccc31)CCCCCC2`, for which the LD50 is 775 mg/kg.

Regarding `C#CCOC(=O)CCCCC(=O)OCC#C`, the LD50 is 200 mg/kg.

For `CC1CNCCN1` (configuration not stated), the LD50 is 2030 mg/kg.

One may read the LD50 as the dose expected to kill half of the subjects tested.
